This is an account of results in publication PMC4042638 (The Journal of Experimental Medicine, 2014).

Each structure is given as a SMILES string.

This assay concerns the target Aβ–fibrinogen interaction (Homo sapiens, UniProt P05067). As to the kind of experiment: AlphaLISA. It counts as binding.

Chain of Aβ–fibrinogen interaction (P05067 672-713): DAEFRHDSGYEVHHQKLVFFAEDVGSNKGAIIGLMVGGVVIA

Turning to `CSc1ccc(/C=C2/C(C)=C(CC(=O)O)c3cc(F)ccc32)cc1` [sulindac sulfide], the “Inhibition of the Aβ–fibrinogen interaction in AlphaLISA (in words)” value is recorded as “no effect”.
